According to ChEMBL document CHEMBL1201862, “PubChem BioAssay data set” (2004):
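Growth conditions: 96-well plates. Treatment: test compound, 48 hours, 5 concentrations. Analysis: linear interpolation between bracketing concentrations; unreached endpoints set to highest concentration. The concentration for 50% growth inhibition is given as GI50.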 Calls of active or inactive are those of the source. Cut-off read from the data, not from the text of the source: active = GI50 up to about 1.1 µM and inactive = higher.

Legend:
Test in all cases: NCI anticancer screen, dose series, 48 h
COLO 205 = tested on: COLO 205
HL-60 = tested on: HL-60
SNB-75 = tested on: SNB-75
UACC-62 = tested on: UACC-62
TK-10 = tested on: TK-10
SW-620 = tested on: SW-620
UACC-257 = tested on: UACC-257
SR = tested on: SR
SK-OV-3 = tested on: SK-OV-3
SK-MEL-2 = tested on: SK-MEL-2
NCI-H23 = tested on: NCI-H23
HT-29 = tested on: HT-29
A498 = tested on: A498
IGROV-1 = tested on: IGROV-1
HOP-92 = tested on: HOP-92
MDA-MB-435 = tested on: MDA-MB-435
MDA-MB-231 = tested on: MDA-MB-231
MCF7 = tested on: MCF7

Measured: GI50

COC(=O)CCC1CCc2c(OC)ccc(OC)c2C1=O (stereo not drawn)
inactive: COLO 205 > 100 µM | HL-60 > 100 µM | SNB-75 > 100 µM | UACC-62 > 100 µM | TK-10 > 100 µM | SW-620 > 100 µM | UACC-257 > 100 µM | SR > 100 µM | SK-OV-3 > 100 µM | SK-MEL-2 > 100 µM | NCI-H23 > 100 µM | HT-29 > 100 µM | A498 > 10 µM | IGROV-1 > 100 µM

CSC1CC2C(CC1(C)O)C2(C)C (stereo not drawn)
inactive: COLO 205 > 100 µM | UACC-62 > 100 µM | TK-10 > 100 µM | SW-620 > 100 µM | SK-OV-3 > 100 µM | SK-MEL-2 > 100 µM | NCI-H23 > 100 µM | HT-29 > 100 µM | A498 > 100 µM | IGROV-1 > 100 µM

Cc1nc2ccccc2c(=O)n1NC(=S)Nc1cccc(Cl)c1
inactive: COLO 205 > 100 µM | HL-60 > 100 µM | SNB-75 72.9 µM | HOP-92 > 100 µM | UACC-62 > 100 µM | TK-10 > 100 µM | SW-620 > 100 µM | UACC-257 > 100 µM | SR 31.8 µM | SK-OV-3 > 100 µM | SK-MEL-2 > 100 µM | NCI-H23 > 100 µM | HT-29 > 100 µM | A498 > 100 µM | IGROV-1 > 100 µM

CC1=N/C(=C\c2c(O)ccc3ccccc23)C(=O)O1
active: SNB-75 0.849 µM
inactive: COLO 205 > 100 µM | HL-60 > 100 µM | HOP-92 > 100 µM | UACC-62 > 100 µM | SW-620 > 100 µM | UACC-257 > 100 µM | SK-MEL-2 > 100 µM | NCI-H23 > 100 µM | HT-29 > 100 µM | A498 > 100 µM | IGROV-1 > 100 µM

[N-]=[N+]=NC1C2CC3CC(C2)CC1C3 (stereo not drawn)
inactive: COLO 205 > 100 µM | SNB-75 > 100 µM | HOP-92 > 100 µM | UACC-62 > 100 µM | TK-10 > 100 µM | SW-620 > 100 µM | UACC-257 > 100 µM | SR > 100 µM | SK-OV-3 > 100 µM | SK-MEL-2 > 100 µM | NCI-H23 > 100 µM | HT-29 > 100 µM | A498 > 100 µM | IGROV-1 > 100 µM

COc1cc([C@@H]2c3cc4c(cc3[C@@H](NC(=O)c3cccc([N+](=O)[O-])c3)C3COC(=O)[C@@H]32)OCO4)cc(OC)c1O (stereo partly drawn)
active: HL-60 0.274 µM | HOP-92 0.63 µM | UACC-62 0.499 µM | SW-620 0.509 µM | SK-OV-3 0.329 µM | NCI-H23 0.189 µM
inactive: COLO 205 4.66 µM | SNB-75 1.31 µM | TK-10 2.25 µM | UACC-257 6.18 µM | SK-MEL-2 2.77 µM | HT-29 1.7 µM | IGROV-1 3.85 µM

COc1ccc(C(=O)C(c2ccc(OC)cc2)C2OC(=O)C(Cl)=C2Cl)cc1 (stereo not drawn)
inactive: HL-60 > 100 µM | HOP-92 > 100 µM | UACC-62 > 100 µM | TK-10 > 100 µM | SW-620 > 100 µM | UACC-257 > 100 µM | SR > 100 µM | SK-OV-3 > 100 µM | SK-MEL-2 > 100 µM | NCI-H23 > 100 µM | HT-29 > 100 µM | IGROV-1 > 100 µM

O/N=C/c1cc2c(cc1Br)OCO2
inactive: COLO 205 > 100 µM | HL-60 > 100 µM | SNB-75 > 100 µM | UACC-62 > 100 µM | TK-10 > 100 µM | SW-620 > 100 µM | UACC-257 > 100 µM | SR > 100 µM | SK-OV-3 > 100 µM | SK-MEL-2 > 100 µM | NCI-H23 > 100 µM | HT-29 > 100 µM | A498 > 100 µM | IGROV-1 > 100 µM

OCC(O)C(OC1OC(CO)C(O)C(O)C1O)c1nn(-c2ccc(Cl)cc2)c2nc3cc(Cl)c(Cl)cc3nc12 (stereo not drawn)
inactive: SNB-75 > 100 µM | UACC-62 > 100 µM | TK-10 > 100 µM | UACC-257 > 100 µM | SR > 100 µM | SK-OV-3 > 100 µM | NCI-H23 > 100 µM | HT-29 > 100 µM | A498 > 100 µM

COC(=O)c1cccn1C(=O)n1cccc1
inactive: COLO 205 > 100 µM | HL-60 > 100 µM | SNB-75 62.1 µM | HOP-92 > 100 µM | UACC-62 > 100 µM | TK-10 > 100 µM | SW-620 > 100 µM | UACC-257 > 100 µM | SR > 100 µM | SK-OV-3 > 100 µM | SK-MEL-2 > 100 µM | NCI-H23 > 100 µM | HT-29 > 100 µM | A498 > 100 µM | IGROV-1 > 100 µM

CC(c1ccccc1)N1CC(C)(c2ccccc2)N(O)C(c2ccccc2)C1C (stereo not drawn)
inactive: COLO 205 11.1 µM | HL-60 3.52 µM | SNB-75 6.03 µM | HOP-92 2.21 µM | TK-10 17.1 µM | SW-620 12.1 µM | UACC-257 13.5 µM | SK-OV-3 22.8 µM | SK-MEL-2 5.42 µM | NCI-H23 8.04 µM | HT-29 23.4 µM | A498 18 µM | IGROV-1 7.45 µM

Clc1ccc(OCCSCCCCCCCCCCSCCOc2ccc(Cl)cc2)cc1
inactive: COLO 205 > 100 µM | HL-60 > 100 µM | SNB-75 > 100 µM | HOP-92 > 100 µM | UACC-62 > 100 µM | TK-10 > 100 µM | SW-620 > 100 µM | UACC-257 > 100 µM | SK-OV-3 > 100 µM | SK-MEL-2 > 100 µM | NCI-H23 > 100 µM | HT-29 > 100 µM | A498 > 100 µM | IGROV-1 > 100 µM

CN1CCCC2[C@@H]3CCC4=C(O)C(=O)CC[C@]4(C)C3CC[C@@]21C (stereo partly drawn)
inactive: COLO 205 > 100 µM | HL-60 > 100 µM | SNB-75 > 100 µM | HOP-92 > 100 µM | UACC-62 > 100 µM | TK-10 > 100 µM | SW-620 > 100 µM | UACC-257 > 100 µM | SK-OV-3 > 100 µM | SK-MEL-2 1.4 µM | NCI-H23 > 100 µM | HT-29 > 100 µM | A498 > 100 µM | IGROV-1 > 100 µM

COC(=O)C12C3C4C1C1C2C3C41C(=O)OC(C)(C)C (stereo not drawn)
inactive: COLO 205 > 64 µM | HL-60 > 53.8 µM | SNB-75 > 100 µM | HOP-92 > 100 µM | UACC-62 > 100 µM | TK-10 > 100 µM | SW-620 > 36.2 µM | UACC-257 > 100 µM | SR 19.2 µM | SK-OV-3 > 100 µM | SK-MEL-2 > 100 µM | NCI-H23 > 100 µM | HT-29 > 100 µM | A498 > 100 µM | IGROV-1 > 100 µM

COC(=O)C(C(=O)C(=O)Nc1cccc(O)c1)c1nc2ccc(Cl)cc2nc1O (stereo not drawn)
inactive: COLO 205 > 100 µM | HL-60 > 100 µM | SNB-75 84.1 µM | HOP-92 59 µM | UACC-62 > 100 µM | TK-10 > 100 µM | SW-620 > 100 µM | UACC-257 > 100 µM | SK-OV-3 > 100 µM | SK-MEL-2 > 100 µM | NCI-H23 > 100 µM | HT-29 > 100 µM | A498 > 100 µM | IGROV-1 > 100 µM

CCOC(=O)N1CCC2C(=C(C)C(C)C3=C2C(=O)c2ccccc2C3=O)C1 (stereo not drawn)
inactive: COLO 205 3.33 µM | HL-60 2.07 µM | SNB-75 3.75 µM | HOP-92 5.41 µM | UACC-62 4.41 µM | TK-10 > 10 µM | SW-620 3.61 µM | MDA-MB-435 2.25 µM | UACC-257 3.29 µM | SR 3.8 µM | SK-OV-3 > 10 µM | MDA-MB-231 4.07 µM | NCI-H23 2.76 µM | HT-29 4.07 µM | MCF7 4.21 µM | IGROV-1 > 10 µM

Cc1cc2c(=O)cc(-c3ccc(C(F)(F)F)cc3)oc2c(C(=O)O)c1C
inactive: COLO 205 > 100 µM | SNB-75 > 100 µM | UACC-62 > 100 µM | TK-10 > 100 µM | SW-620 > 100 µM | UACC-257 > 100 µM | SK-OV-3 > 100 µM | SK-MEL-2 > 100 µM | NCI-H23 > 100 µM | HT-29 > 100 µM | IGROV-1 > 100 µM

O=S(=O)(O)C1=C2Sc3ccccc3N=C2c2ccccc2C1
inactive: COLO 205 16.5 µM | HL-60 3.76 µM | SNB-75 18.5 µM | HOP-92 10.3 µM | UACC-62 13.2 µM | TK-10 18.4 µM | SW-620 15.3 µM | UACC-257 17.1 µM | SR 3.14 µM | SK-OV-3 29.2 µM | SK-MEL-2 14.6 µM | NCI-H23 16.4 µM | HT-29 20.3 µM | A498 18.6 µM | IGROV-1 14.3 µM

c1ccc(C2[C@@H]3CCCc4ccccc4C3=NN2c2ccccc2)cc1 (stereo partly drawn)
inactive: COLO 205 > 100 µM | HL-60 80 µM | TK-10 > 100 µM | SW-620 > 100 µM | UACC-257 > 100 µM | SR 91.6 µM | NCI-H23 61 µM | HT-29 61.7 µM | A498 > 100 µM | IGROV-1 > 100 µM

Oc1cc(-c2ccccn2)nc2ccc(Cl)cc12
inactive: COLO 205 36.6 µM | HL-60 10.9 µM | SNB-75 18.8 µM | HOP-92 > 100 µM | UACC-62 28.7 µM | TK-10 95.7 µM | SW-620 19.8 µM | UACC-257 31.7 µM | SR > 100 µM | SK-OV-3 36 µM | NCI-H23 29.5 µM | HT-29 33 µM | IGROV-1 64.1 µM
